In paper PMC8950868, “Identifying Human PTP1B Enzyme Inhibitors from Marine Natural Products: Perspectives for Developing of Novel Insulin-Mimetic Drugs” (Pharmaceuticals, 2022):
One block for each molecule: values may come before it.

Legend:
[1] = molecular target: T1, human recombinant PTP1B (1–302) (Homo sapiens, UniProt P18031); test: PTP1B enzymatic assay (p-NPP hydrolysis; preliminary screening and IC50); assay type: biochemical; details: for Effect on PTP1B activity in preliminary screening: 20 µM of each compound, 30 min; for IC50: 2.5 mM p-NPP, pH 7.0, 37 °C, mean ± SD (n = 3), read-out: IC50 values determined on PTP1B
T1 construct: human recombinant PTP1B (1–302)
T1 sequence (P18031 1-302): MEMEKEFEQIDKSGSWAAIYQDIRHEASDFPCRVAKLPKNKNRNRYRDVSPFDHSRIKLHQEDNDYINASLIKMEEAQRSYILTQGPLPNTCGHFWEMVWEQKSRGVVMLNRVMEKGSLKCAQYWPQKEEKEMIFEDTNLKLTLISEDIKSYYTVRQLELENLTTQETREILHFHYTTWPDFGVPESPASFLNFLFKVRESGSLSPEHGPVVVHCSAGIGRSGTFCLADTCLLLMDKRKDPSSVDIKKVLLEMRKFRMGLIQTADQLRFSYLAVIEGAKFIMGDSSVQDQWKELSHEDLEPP
Protocol: We performed enzymatic assays as previously described. For each assay, an aliquot of human recombinant PTP1B (1–302) was added in the assay buffer (0.075 M β,β-dimethylglutarate pH 7.0 containing 1 mM EDTA, 0.1 mM DTT and a p-nitrophenylphosphate (p-NPP) (Chemcruz, Santa Cruz Biotechnology (Santa Cruz, CA, USA)). The reactions were performed at 37 °C in a final volume of 1 mL. After adequate time (30 min) of incubation, the reactions were stopped adding 2 mL of 0.1 M KOH in each sample. The released amount of p-nitrophenol, product of the reaction, was determined by measuring the absorbance at 400 nm in a 1 cm pathlength cuvette.
The IC50 value of compounds against PTP1B was determined by measuring the hydrolysis rate of the enzyme in the presence of a fixed substrate concentration (2.5 mM p-NPP) and increasing inhibitor concentrations (generally 14–16 different concentrations). Each test was carried out in triplicate. Experimental data were normalized respect to control samples and then fitted using a non-linear fitting software, using the following equation: Vi/V0=Max−Min/1+x/IC50^slope+Min where the Vi/V0 value represents the relative activity calculated in presence of each inhibitor concentration; the maximum and minimum value of the activity are represented by “Max” and “Min”, respectively; “x” is the concentration of the inhibitor; IC50 is the inhibitor concentration able to decrease the enzymatic activity up to 50%; “slope” represents the slope of the curve in the transition zone.
Figure 2 Preliminary screening assay on PTP1B. All assays were started by diluting an aliquot of PTP1B in the assay solution containing substrate alone (control test) or substrate and an aliquot of each compound (20 µM, final concentration). After 30 min, the reactions were stopped by adding a concentrated KOH solution. The enzyme activity was determined by measuring the amount of p-nitrophenol that was released in each sample using a spectrophotometer. Data obtained were normalized respect to control sample. […] Statistical analysis was carried out using one way ANOVA followed by Tukey’s HSD test for pairwise comparisons. Statistics have been drawn on raw data and compare samples to control (Ctr). * p < 0.05; ** p < 0.01.
Figure 3 Determination of the IC50 values with compounds 3, 8a, 8b, 9a and 9b. An aliquot of PTP1B enzyme was diluted in the presence of increasing concentration of the compounds. The activity of PTP1B was determined by measuring the absorbance of the sample at 400 nm, using a spectrophotometer. Data obtained were normalized respect to the control sample and analysed using a non-linear fitting software.

human recombinant AR = molecular target: T2, human recombinant AR (Homo sapiens, UniProt P15121); test: AR enzymatic assay (NADPH oxidation, L-idose substrate); assay type: biochemical; details: for % residual activity of human AR / remaining activity at 210 µM: 210 µM (maximal concentration used); for % residual activity of human AR: 210 µM; for remaining activity at 43 µM: 43 µM (maximal concentration used)
T2 construct: made in house
Protocol: The human recombinant AR, purified to electrophoretic homogeneity as described, was used as target enzyme. AR activity was determined at 37 °C as previously described by evaluating the decrease in absorbance at 340 nm linked to NADPH oxidation using a Biochrom Libra S60 spectrophotometer. The standard assay mixture contained 0.25 M sodium phosphate buffer pH 6.8, 0.18 mM NADPH, 0.42 M ammonium sulfate, 0.5 mM EDTA and 4.7 mM D,L-glyceraldehyde. One unit of enzyme activity is the amount that catalyses the conversion of 1 µmol of substrate/min in the above assay conditions. For AR inhibition studies, 0.8 mM L-idose was used as substrate in the conditions described above, in the presence of 10 mU of enzyme and of a final concentration of DMSO of 0.7% (v/v).

GST–PTP1B fusion protein = system: GST–PTP1B fusion protein; parameters: method as in PMID 27064611; details: different pH value, read-out: IC50 on PTP1B previously determined; cited from earlier work
PTP1B = system: PTP1B; parameters: method as in PMID 34677434; details: cited from earlier work
AR = system: AR; parameters: method as in PMID 34677434; details: cited from earlier work
HepG2 cells = system: HepG2 cells; parameters: method as in PMID 34677434; details: cited from earlier work
[2] = read-out: % residual activity of human AR

- Effect on PTP1B activity in preliminary screening [1]: loss of activity
Compound: CCCCC[C@@H](O)[C@@H](O)CC[C@H](CCCC)OC(C)=O (relative stereo) [Compound 7a]

- Effect on PTP1B activity in preliminary screening [1]: loss of activity
Compound: CCCCC[C@H](O)[C@H](O)CC[C@H](CCCC)OC(C)=O (relative stereo) [Compound 7b]

- Effect on PTP1B activity in preliminary screening [1]: reducing PTP1B activity
- IC50 [1]: 37.1 ± 6.5 µM
- % residual activity of human AR (human recombinant AR): 74 ± 8%
- remaining activity at 210 µM (human recombinant AR; [2]): 76%
Compound: CCCCC[C@H](OP(=O)(O)O)[C@H](O)CC[C@H](CCCC)OC(C)=O (relative stereo) [Compound 8b]

- Effect on PTP1B activity in preliminary screening [1]: reducing PTP1B activity
- IC50 [1]: 83 ± 15 µM
- remaining activity at 107 µM (human recombinant AR; 107 µM (maximal concentration used), read-out: % residual activity of human AR): 86 ± 2%
Compound: CCCCC[C@@H](O)[C@H](CC[C@H](CCCC)OC(C)=O)OP(=O)(O)O (relative stereo) [Compound 9a]

- Effect on PTP1B activity in preliminary screening [1]: reducing PTP1B activity
- IC50 [1]: 63 ± 14 µM
- % residual activity of human AR (human recombinant AR): 74 ± 6%
- remaining activity at 210 µM (human recombinant AR; [2]): 77%
Compound: CCCCC[C@H](O)[C@@H](CC[C@H](CCCC)OC(C)=O)OP(=O)(O)O (relative stereo) [Compound 9b]

- Effect on PTP1B activity in preliminary screening [1]: loss of activity
- AR inhibition (in words) (human recombinant AR): ineffective
- remaining activity at 71 µM (human recombinant AR; 71 µM (maximal concentration used), read-out: % residual activity of human AR): 103 ± 4%
Compound: O=C(O)CNC(=O)CCCCCC[C@H](O)CCCO [Compound 2]

- Effect on PTP1B activity in preliminary screening [1]: loss of activity
- remaining activity at 43 µM (human recombinant AR; [2]): 97 ± 4%
Compound: CCCCC[C@@H](O)[C@@H](O)CC[C@@H](O)CCCC [Compound 4a, (5S,8S,9R)-tetradecane-5,8,9-triol]

- Effect on PTP1B activity in preliminary screening [1]: loss of activity
- remaining activity at 43 µM (human recombinant AR; [2]): 98 ± 3%
Compound: CCCCC[C@H](O)[C@H](O)CC[C@@H](O)CCCC [Compound 4b, (5S,8R,9S)-tetradecane-5,8,9-triol]

- IC50 [1]: 0.7 ± 0.1 µM
Compound: CCCCCCCCCCCCCCC(OP(=O)(O)O)C(O)CCC(O)C(O)CCC(O)CCCCCCC(=O)NCC(=O)O (stereo not shown) [Phosphoeleganin, phosphoeleganin]
- IC50 (GST–PTP1B fusion protein): 11 ± 2 µM
- Type of PTP1B inhibition (PTP1B): pure non-competitive inhibitor
- Type of AR inhibition (AR): mixed-type inhibitor
- Activity in HepG2 cells (HepG2 cells): insulin-sensitizing activity
